Data reported in patent US20220347171A1, “TREATMENT OF PRURIGO NODULARIS” (TREVI THERAPEUTICS, INC., priority 2016, published 2022).
Counter-ions that a name gives are not always drawn.

Experiments:
[1] = test system: prurigo nodularis patients; test: Example 2 trial: ItchyQoL total score; assay type: in vivo, human; conditions: for Mean (SD) decrease in ItchyQoL total score from baseline to Week 10: placebo −5.45 (10.91)
Procedure: This clinical study was a double-blind, placebo-controlled trial in which prurigo nodularis patients were randomized in a 1:1:1 ratio to nalbuphine ER tablets to a target dose of 90 mg twice daily (BID), nalbuphine HCl ER tablets 180 mg BID, or placebo tablets BID. Use of nonsedating rescue antihistamine medications (non-first generation H1-antihistamines [Simons F E. Advances in H1-antihistamines. N Engl J Med. 2004; 351(21):2203-17.]) were allowed in the study but their use was recorded. Cleansing emollients were allowed for hygiene purposes provided there were no active substances (such as menthol or urea) contained in the lotion. A placebo comparator was chosen because there are no approved treatments for prurigo nodularis in the United States or Europe or an established standard of care that could serve as an active control.
Quality of life-related secondary endpoints included change from Day 1 to the Evaluation Period in itching-related quality of life (using the Itchy QoL) and itching-related sleep disruption (using the MOS Sleep Scale-R). The Hospital Anxiety and Depression Score (HADS) used as a general measure of anxiety and depression.
Efficacy analysis of secondary continuous endpoints was performed using a mixed model repeated ANCOVA with the main effects of treatment and site, including the baseline value for each endpoint as the covariate. The model included time (i.e. Visit) as a factor variable and treatment*time (with placebo as the reference category) with an unstructured covariance structure for repeated measures. For other secondary efficacy endpoints, the Time factor corresponded to the scheduled study visits when the assessment was obtained (Visit 3, Visit 4, and Visit 5). Data from all post-baseline visits were used to fit the model.
In the first 2 weeks of treatment, patients were blindly force-titrated to their assigned target dose, with the patients in the active arms reaching a dose of 90 mg BID (NAL 90) and, for those in the high dose group, to 180 mg BID (NAL 180) in the second week. […]

[2] = test system: prurigo nodularis patients; test: TR03ext (Example 3), titrated 30 mg QD to 180 mg BID: ItchyQoL Total Score; assay type: in vivo, human; conditions: Baseline 75.2 (15.1)
From the text: This clinical study was a Phase 2 Open Label Extension Study (clinical study TR03ext) of the randomized, double-blind, 3-parallel arm, placebo controlled dose ranging study described in Example 2. All those subjects who were randomized, and then completed Example 2 study, were eligible to participate in the Extension Study.
The primary endpoint was a description of the overall incidence and nature of Treatment-Emergent AEs (TEAES) during weeks 5-50 of the study. Exploratory efficacy endpoints included Change from Baseline patient reported outcome measures of Worst itch NRS, itchy VRS and ItchyQoL, by Treatment Period study visit and Baseline NRS score. There was also an assessment of any potential skin lesion changes over time using the metrics of the PAS.
Of the 63 patients that were randomized to the study of Example 2, 36 subjects who enrolled into Extension Study entered the Treatment Period of the study and were exposed to nalbuphine HCl ER tablet administration and are the basis of the study safety population analysis.
Patients in Extension Study were titrated over a dose range of 30 mg QD to 180 mg BID based on tolerability. The selected dose range was based on Example 2 study whereby patients were titrated from a 30 mg QD dose either to 30 mg BID, 60 mg BID, 90 mg BID, 120 mg BID or a 180 mg BID dose. The highest dose proposed was 180 mg BID (360 mg daily dose), and was well below the highest recommended daily treatment of 160 mg IV (equivalent to 960 mg oral) for the current marketed parenteral administered product.
The study duration for each patient was up to 52 weeks, with up to 50 weeks on study drug. The Extension Study consisted of a Treatment Period (that was followed by a Washout Safety Follow-up Period) and an Observation Period. Patients either entered directly into a drug Treatment Period (NRS >5) or a no-drug Observation Period (NRS ≤5) based on their reported NRS scores on the first Visit (Visit 1a). For up to 12 Extended Screening weeks, patients in the no-drug Observation Period could have also transitioned into the drug Treatment Period if their NRS increased to NRS >5. All patients entering the Treatment Period, whether immediately upon study entry or following a period of time in the Observation Period, were titrated to a dose ranging between 30 mg up to 180 mg BID, the highest dose tested in Example 2.

[3] = injectable formulations (IV or IM or SC); cited from earlier work

## Oc1ccc2c3c1OC1[C@@H](O)CC[C@@]4(O)[C@@H](C2)N(CC2CCC2)CC[C@]314 (stereo partly drawn) [Nalbuphine, 17-(cyclobutylmethyl)-4,5α-epoxymorphinian-3, 6α, 14-triol, hydrochloride]
[1]; 90 mg BID
  Mean (SD) decrease in ItchyQoL total score from baseline to Week 10: −7.79 (7.83)
[1]; 180 mg BID, Week 10, p=0.022
  ItchyQoL total score, LS mean difference versus placebo (mixed model repeated measures): −8.75
[1]; 180 mg BID
  Mean (SD) decrease in ItchyQoL total score from baseline to Week 10: −13.83 (13.45)
[2]; Study Week 3, N=33
  ItchyQoL Total Score Visit Mean (SD): 70.3 (18.7)
[2]; Study Week 5, N=31
  ItchyQoL Total Score Visit Mean (SD): 67.8 (19.0)
[2]; Study Week 9, N=28
  ItchyQoL Total Score Visit Mean (SD): 65.8 (18.5)
[2]; Study Week 13, N=24
  ItchyQoL Total Score Visit Mean (SD): 65.7 (17.4)
[2]; Study Week 17, N=24
  ItchyQoL Total Score Visit Mean (SD): 63.5 (19.4)
[2]; Study Week 21, N=21
  ItchyQoL Total Score Visit Mean (SD): 62.6 (18.0)
[2]; Study Week 26, N=20
  ItchyQoL Total Score Visit Mean (SD): 59.4 (16.8)
[2]; Study Week 30, N=19
  ItchyQoL Total Score Visit Mean (SD): 60.8 (18.9)
[2]; Study Week 34, N=17
  ItchyQoL Total Score Visit Mean (SD): 62.2 (15.2)
[2]; Study Week 38, N=16
  ItchyQoL Total Score Visit Mean (SD): 61.9 (16.1)
[2]; Study Week 42, N=16
  ItchyQoL Total Score Visit Mean (SD): 63.4 (15.3)
[2]; Study Week 46, N=16
  ItchyQoL Total Score Visit Mean (SD): 62.4 (14.1)
[2]; Study Week 50, N=14
  ItchyQoL Total Score Visit Mean (SD): 63.3 (15.9)
[3]
  half-life: 2 to 3 h
